In PubChem BioAssay (NCI):
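Five compound concentrations were applied to cells in 96-well plates for 48 hours; endpoints were derived by simple linear interpolation of the resulting dose-response curve. The concentration for full growth arrest is given as TGI.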

Columns and labels:
Experiment in all cases: NCI-60 cell line screen, 48 h
DU-145 prostate = system: DU-145 prostate
NCI-H460 lung = system: NCI-H460 lung
M14 melanoma = system: M14 melanoma
CAKI-1 renal = system: CAKI-1 renal
T-47D breast = system: T-47D breast
SW-620 colon = system: SW-620 colon
MCF7 breast = system: MCF7 breast
U251 CNS = system: U251 CNS
UO-31 renal = system: UO-31 renal
OVCAR-3 ovarian = system: OVCAR-3 ovarian
HCT-15 colon = system: HCT-15 colon
HCC-2998 colon = system: HCC-2998 colon
786-0 renal = system: 786-0 renal
NCI-H23 lung = system: NCI-H23 lung
SF-295 CNS = system: SF-295 CNS
ACHN renal = system: ACHN renal
HCT-116 colon = system: HCT-116 colon
SNB-19 CNS = system: SNB-19 CNS
HOP-62 NSCLC = system: HOP-62 NSCLC
HS 578T breast = system: HS 578T breast
EKVX NSCLC = system: EKVX NSCLC
OVCAR-4 ovarian = system: OVCAR-4 ovarian
SK-MEL-2 melanoma = system: SK-MEL-2 melanoma
A549 NSCLC = system: A549 NSCLC
SK-MEL-5 melanoma = system: SK-MEL-5 melanoma
MDA-MB-231 breast = system: MDA-MB-231 breast
OVCAR-5 ovarian = system: OVCAR-5 ovarian
SF-268 CNS = system: SF-268 CNS
IGROV1 ovarian = system: IGROV1 ovarian
NCI-H522 lung = system: NCI-H522 lung
TK-10 renal = system: TK-10 renal
SF-539 CNS = system: SF-539 CNS
A498 renal = system: A498 renal
HT29 colon = system: HT29 colon
UACC-62 melanoma = system: UACC-62 melanoma
HL-60(TB) leukemia = system: HL-60(TB) leukemia
MOLT-4 leukemia = system: MOLT-4 leukemia
LOX IMVI melanoma = system: LOX IMVI melanoma
KM12 colon = system: KM12 colon
UACC-257 melanoma = system: UACC-257 melanoma
K-562 leukemia = system: K-562 leukemia
MDA-MB-435 = system: MDA-MB-435
OVCAR-8 ovarian = system: OVCAR-8 ovarian
PC-3 prostate = system: PC-3 prostate
BT-549 breast = system: BT-549 breast
SN12C renal = system: SN12C renal
SR leukemia = system: SR leukemia
HOP-92 NSCLC = system: HOP-92 NSCLC
NCI/ADR-RES ovarian = system: NCI/ADR-RES ovarian
SK-MEL-28 melanoma = system: SK-MEL-28 melanoma
CCRF-CEM leukemia = system: CCRF-CEM leukemia
COLO 205 colon = system: COLO 205 colon
RXF 393 renal = system: RXF 393 renal

`COc1cc2c3c(c1OC)C(=O)C(=O)C1=C3N(CCC1)CC2` was tested, and the TGI (DU-145 prostate) was > 100 µM, the TGI (NCI-H460 lung) was 37.5 µM and the TGI (M14 melanoma) was 70 µM. The TGI (CAKI-1 renal) was > 100 µM, the TGI (T-47D breast) was > 100 µM and the TGI (SW-620 colon) was > 100 µM. The TGI (MCF7 breast) was 37.2 µM, the TGI (U251 CNS) was > 100 µM and the TGI (UO-31 renal) was > 100 µM. For the same molecule, the TGI (OVCAR-3 ovarian) was 73.3 µM, the TGI (HCT-15 colon) was > 100 µM and the TGI (HCC-2998 colon) was > 100 µM. For the same molecule, the TGI (786-0 renal) was > 100 µM, the TGI (NCI-H23 lung) was 86.3 µM and the TGI (SF-295 CNS) was 76.9 µM. For the same molecule, the TGI (ACHN renal) was > 100 µM, the TGI (HCT-116 colon) was 47.3 µM and the TGI (SNB-19 CNS) was > 100 µM. For the same molecule, the TGI (HOP-62 NSCLC) was 96.9 µM, the TGI (HS 578T breast) was 47.6 µM and the TGI (EKVX NSCLC) was 64.8 µM. The TGI (OVCAR-4 ovarian) was 62.2 µM, the TGI (SK-MEL-2 melanoma) was > 100 µM and the TGI (A549 NSCLC) was > 100 µM. The TGI (SK-MEL-5 melanoma) was > 100 µM, the TGI (MDA-MB-231 breast) was > 100 µM and the TGI (OVCAR-5 ovarian) was > 100 µM. For the same molecule, the TGI (SF-268 CNS) was 92.1 µM, the TGI (IGROV1 ovarian) was > 100 µM and the TGI (NCI-H522 lung) was 72.2 µM. For the same molecule, the TGI (TK-10 renal) was > 100 µM, the TGI (SF-539 CNS) was 80.1 µM and the TGI (A498 renal) was 92.6 µM. The TGI (HT29 colon) was > 100 µM, the TGI (UACC-62 melanoma) was 42 µM and the TGI (HL-60(TB) leukemia) was 70.4 µM. For the same molecule, the TGI (MOLT-4 leukemia) was 56.3 µM, the TGI (LOX IMVI melanoma) was > 100 µM and the TGI (KM12 colon) was 44.5 µM. It also gave a TGI (UACC-257 melanoma) of 67 µM, a TGI (K-562 leukemia) of 71.8 µM and a TGI (MDA-MB-435) of 53.8 µM. For the same molecule, the TGI (OVCAR-8 ovarian) was > 100 µM, the TGI (PC-3 prostate) was > 100 µM and the TGI (BT-549 breast) was 72.6 µM. The TGI (SN12C renal) was > 100 µM, the TGI (SR leukemia) was 55.5 µM and the TGI (HOP-92 NSCLC) was 60.4 µM. For the same molecule, the TGI (NCI/ADR-RES ovarian) was > 100 µM, the TGI (SK-MEL-28 melanoma) was > 100 µM and the TGI (CCRF-CEM leukemia) was 80.4 µM. For the same molecule, the TGI (COLO 205 colon) was 35.3 µM and the TGI (RXF 393 renal) was > 100 µM.
